Format in all cases: cell-based, human
Data set [1] concerns tumour infiltrating lymphocytes (TIL). Nature of the data set: IFNγ release by pre-treated TIL on autologous tumour cells after H2O2 treatment. Particulars: KADA and ANRU melanoma TIL, E:T 4:1, vs control group. Here is the method: ., 2020). […] For Nrf2 inhibition, NK cells were treated with 50 μM ML-385 (Sigma-Aldrich) in parallel. […] Cells were washed with medium and then used for further experiments. For monocyte experiments, autologous NK cell-monocytes or TIL-monocytes were used. […] Stimulated monocytes were activated with 100 ng/ml PMA for 1 min, washed and added at indicated ratio, the number of NK cell/TIL was kept constant. […] For cytokine release assay, NK cells and TIL were cultured with indicated tumour cells at the effector target ratio 4:1 (E:T) for 24 h in U-bottom plates. IFNγ secretion was measured using human IFN-γ ELISA development kit (Mabtech) following the manufacturer's instructions.

Data set [2] deals with CD19 directed CAR T cells. As to the kind of experiment: CD19-directed CAR T-cell lysis of RAJI and N6/ADR tumour cells after H2O2. The following applies: H2O2 at different concentrations, E:T 15:1, vs control CAR T cells. Here is the method:
Melanoma patient derived TIL and CD19 directed CAR T cells were generated as previously described (Magalhaes et al., 2018; Lövgren et al., 2020).
For Nrf2 inhibition, NK cells were treated with 50 μM ML-385 (Sigma-Aldrich) in parallel. For H2O2 treatment, lymphocyte cells were washed and resuspended to 1×10^6 cells/mL in medium and exposed to indicated H2O2 (Sigma-Aldrich) concentration for 1 h at 37° C. Cells were washed with medium and then used for further experiments. For monocyte experiments, autologous NK cell-monocytes or TIL-monocytes were used. NK cells/TIL were isolated and pre-treated with 0.5 μg/mL AUF, as described above, and co-cultured with unstimulated at the ratio, 1:2 M:NK, or stimulated monocytes at the ratio, 1:1 M:NK, if not indicated otherwise. Stimulated monocytes were activated with 100 ng/ml PMA for 1 min, washed and added at indicated ratio, the number of NK cell/TIL was kept constant. As control, H2O2 was used at indicated concentration. […]
For cytotoxic assay, a standard 4 h [Cr^51]-release assay was used. […] The supernatant was collected onto LUMA plates (Perkin-Elmer) and radioactivity/tumour cell lysis was detected by MicroBeta2 (Perkin Elmer). Target cell killing measured by % specific lysis and calculated using the formula: ((experimental release-spontaneous release)/(maximum release-spontaneous release))*100.

The test system of data set [3] is tumour infiltrating lymphocytes (TIL). As to the kind of experiment: Intracellular ROS levels in TIL (CM-H2DCFDA, flow cytometry). Here is the method: (§1) For Nrf2 inhibition, NK cells were treated with 50 μM ML-385 (Sigma-Aldrich) in parallel. For H2O2 treatment, lymphocyte cells were washed and resuspended to 1×10^6 cells/mL in medium and exposed to indicated H2O2 (Sigma-Aldrich) concentration for 1 h at 37° C. Cells were washed with medium and then used for further experiments. For monocyte experiments, autologous NK cell-monocytes or TIL-monocytes were used. NK cells/TIL were isolated and pre-treated with 0.5 μg/mL AUF, as described above, and co-cultured with unstimulated at the ratio, 1:2 M:NK, or stimulated monocytes at the ratio, 1:1 M:NK, if not indicated otherwise. Stimulated monocytes were activated with 100 ng/ml PMA for 1 min, washed and added at indicated ratio, the number of NK cell/TIL was kept constant. As control, H2O2 was used at indicated concentration. Cells were co-cultured for 2 h and then effector cells were stained for intracellular ROS (see flow cytometry) or used as effector cells in Cr^51 release assay (E:T ratio 10:1).
For TIL, T cells were pre-incubated with 10 μM CM-H2DCFDA (Thermo Fisher Scientific) solution in RPMI for 30 min at 37° C. prior to H2O2 treatment and then stained with anti-CD3, anti-CD4 and anti-CD8.
On the technique in general: A flow cytometer gives signals particle by particle.

For data set [4], the system named is NK cells. Nature of the data set: [Cr51]-release assay: lysis of tumour target cells by pre-treated NK cells after H2O2 exposure.
From the text: Peripheral blood samples (anonymized by-products of blood donations from healthy adult donors) were purchased from Karolinska University Hospital Blood Bank. Peripheral blood mononuclear cells (PBMC) were isolated from healthy donor buffy coats using density centrifugation with Ficoll® Paque Plus (GE Healthcare). NK cells and CD14^+ monocytes were isolated from PBMCs using NK cell isolation kit or CD14^+ microbeads, respectively (both Miltenyi Biotec), following the manufacturer's instructions. For NK cell expansion, a EBV-LCL feeder cell line was used, irradiated at 100 gy and then co-cultured with NK cells, at the ratio 10:1 LCL:NK, in X-Vivo 20 (Lonza) supplemented with 10% human AB serum and 1000 U/mL IL-2 (Proleukin). From day 6 or 10, NK cells were kept at 0.5×10^6 cells/mL or 1×10^6/mL, respectively. Purity of expanded NK cell was assessed at day 10 by flow cytometry, see below.
Lymphocytes were pre-treated for 18 h with Auranofin (AUF, with the concentration 1 μg/mL for NK cells and 0.5 μg/mL for TIL, if not indicated differently), DL-Sulforaphane (SUL) or Dimethyl Fumarate (DMF) (all Sigma-Aldrich) at indicated concentrations.
as §1
For cytotoxic assay, a standard 4 h [Cr^51]-release assay was used. Briefly, tumour cells were harvested and labeled with 51Cr (PerkinElmer) and used as target cells. Effector cells, NK cells and T cells, were co-cultured in 96-well V-bottom plate with indicated tumour cells at the stated effector target ratio (E:T). The supernatant was collected onto LUMA plates (Perkin-Elmer) and radioactivity/tumour cell lysis was detected by MicroBeta2 (Perkin Elmer). Target cell killing measured by % specific lysis and calculated using the formula: ((experimental release-spontaneous release)/(maximum release-spontaneous release))*100.
Lymphocytes were pre-treated for 18 h with Auranofin (AUF, with the concentration 1 μg/mL for NK cells and 0.5 μg/mL for TIL. As AUF was reconstituted in DMSO, control NK cells were pre-treated with DMSO with an equivalent volume to the highest compound concentration. For N-acetylcysteine (NAC, Invitrogen) treatment, DMSO pre-treated cells were incubated for 1 h with 5 or 10 mM NAC prior to H2O2 treatment. For H2O2 treatment, lymphocytes were washed and resuspended to 1×10^6 cells/mL in RPMI containing the indicated H2O2 (Sigma-Aldrich) concentration for 1 h at 37° C. 5% CO2. Cells were washed with medium and then used for further experiments.

The subject of data set [5] is Nrf2 target genes (NQO1, HMOX1, TXNRD1, Keap1). Nature of the data set: qPCR of classical Nrf2 target genes in TIL. On the procedure: Lymphocytes were pre-treated with AUF, SUL or DMF as described above. RNA was isolated using TRIzol™ Plus RNA Purification Kit (Invitrogen). cDNA was generated using the iScript™ cDNA Synthesis Kit (Bio-Rad) and qPCR was done using iTaq™ Universal SYBR® Green Supermix (Bio-Rad) in the CFX96 Touch Real-Time PCR Detection System (Bio-Rad). Fold change expression from untreated cells was calculated using the 2^-ΔΔCt formula with b-actin as reference gene. Evaluated genes were NAD(P)H Quinone Dehydrogenase 1 (NQO1), Kelch Like ECH Associated Protein 1 (Keap1), Heme Oxygenase 1 (HMOX1) and Thioredoxin Reductase 1 (TXNRD1).

SMILES strings stand for the structures. “Also recorded” adds a separate entry of the source.

Take `CC(=O)OC[C@H]1O[C@@H]([S-])[C@H](OC(C)=O)[C@@H](OC(C)=O)[C@@H]1OC(C)=O.CCP(CC)CC.[Au+]` [AUF, Auranofin]: in data set [1], the “Recognition of autologous tumour cells by TIL (IFNγ production) upon exposure to H2O2” value was “increased recognition of their autologous tumour cells”. Further, the “Killing of CD19+ target cells by CD19 directed CAR T cells” value in data set [2] is “significantly increased killing”; in data set [2] (listed as auranofin) it was “improved tumour killing”. The “Effect on intracellular ROS levels in TIL” value in data set [3] (72 h after AUF removal) was “effects remained”. Besides, the “Fluorescence correlating to intracellular ROS levels in TIL” value in data set [3] (KADA and BEHA TIL) is “lowered”. In addition, in data set [4] (18 h pre-treatment, H2O2 1 h up to 250 μM, E:T 9:1, vs control NK cells), the “Lysis of K562 target cells by pre-treated NK cells after H2O2 exposure” value was “counteracted; also recorded: strong protective effect against ROS”. In addition, in data set [4] (72 h after AUF removal, E:T 3:1), the “Effector functions of NK cells (K562 lysis) vs controls” value is “no differences”. Moreover, the “Killing of KASUMI-1 cells by pre-treated NK cells” value in data set [4] (AML cell line KASUMI-1, H2O2, E:T 9:1) was “significantly increased killing”. Further, the “Killing of THP-1 cells by pre-treated NK cells” value in data set [4] (AML cell line THP-1, H2O2, E:T 9:1) is listed as “significantly increased killing”. The “Time after start of pre-treatment with most pronounced protection of functional cytotoxicity capacity” value in data set [4] (NK cells, K562 lysis, H2O2, E:T 9:1) was “around 18 h”. The “Lysis of K562 by AUF pre-treated NK cells despite addition of ML385” value in data set [4] (compared to untreated controls) was “lysis was increased”. For the same compound, the “Suppressive effect of H2O2 on lymphocyte function (killing, degranulation, IFNγ)” value in data set [4] (expanded NK cells and patient derived TIL, pre-treatment) is recorded as “counteracts the suppressive effect of H2O2 on lymphocyte function”. In data set [4] (post pre-treatment), the “Duration of improved NK cell and TIL tolerance towards oxidative stress” value is listed as “up to two to three days”. Moreover, the “Dependence of the protective effect on Nrf2 activation” value in data set [4] (qPCR of Nrf2 target genes and K562 lysis with/without Nrf2 inhibitor ML385) is on record as “dependent on Nrf2 activation”. Further, in data set [4] (up to 48 h after AUF removal, E:T 3:1), the “Effector functions of NK cells (K562 lysis)” value is “significantly improved effector functions”. Also, the “Effector function of NK cells and TIL after H2O2 treatment” value in data set [4] (up to 72 h after compound removal) is recorded as “increased effector function”. The “Time of HMOX1 expression peak in TIL” value in data set [5] was 3 h. Moreover, the “Activation of Nrf2 target genes in TIL” value in data set [5] (TIL from three melanoma patients KADA, ANRU, BEHA) is reported as “robust activation”.
